In patent US5366726A (priority 1992, dated 1994):
“Also recorded” adds a separate entry of the source.

Experiments:
Pneumocystis carinii [1] = test: Example 1: treatment of P. carinii pneumonia, inhaled vs intravenous pentamidine; format: in vivo, human
[2] = Example 3: serum pentamidine concentrations; format: in vivo; details: human, inhaled or intranasal, 300 mg, serum pentamidine concentration at end of therapy, 2 patients
Pneumocystis carinii [3] = test: Example 8: randomized clinical trial, prevention of PCP; format: in vivo, human
[4] = human, in vivo
[5] = all strata, eligible, PCP within 60 days, 30 mg
[6] = all strata, eligible, confirmed PCP within 60 days, 30 mg
[7] = prior PCP strata, eligible, PCP within 60 days, 30 mg
[8] = prior PCP strata, eligible, PCP within 60 days, 150 mg
[9] = prior PCP strata, eligible, PCP within 60 days, 300 mg
[10] = prior PCP strata, eligible, confirmed PCP within 60 days, 30 mg
[11] = prior PCP strata, eligible, confirmed PCP within 60 days, 150 mg
[12] = prior PCP strata, eligible, confirmed PCP within 60 days, 300 mg

## N=C(N)c1ccc(OCCCCCOc2ccc(C(=N)N)cc2)cc1 [pentamidine, p,p'-(pentamethylenedioxy)dibenzamidine]
Pneumocystis carinii [1]; inhaled
  successfully treated patients with relapses: three of ten
Pneumocystis carinii [1]; inhaled, 4 mg/Kg, UltraVent, single patients
  Outcome of therapy: success; also recorded: failed
Pneumocystis carinii [1]; inhaled, at one, three and two months
  patients readmitted and treated for P. carinii pneumonia after discharge: Three
Pneumocystis carinii [1]; inhaled, based on 9 successful patients
  Time to discharge, all patients in group: 15 ± 1 days
Pneumocystis carinii [1]; inhaled, of the remaining ten evaluated patients
  patients with satisfactory outcome: nine
Pneumocystis carinii [1]; inhaled, remaining six, one to nine months following discharge
  recurrence of PCP at follow-up: no recurrence of PCP
Pneumocystis carinii [1]; inhaled, single patients
  Time to discharge: 9 days
Pneumocystis carinii [1]; intravenous
  patients with satisfactory outcome: Eight of nine
Pneumocystis carinii [1]; intravenous, 3 mg/Kg, single patients
  Outcome of therapy: success; also recorded: failed
Pneumocystis carinii [1]; intravenous, based on 8 successful patients
  Time to discharge, all patients in group: 14 ± 2 days
Pneumocystis carinii [1]; intravenous, four patients, five to six months
  relapses at follow-up: no reported relapses
[2]
  concentration at 504 h: 22 ng/mL
Pneumocystis carinii [3]; 150 mg arm, compared with 30 mg arm, not statistically significant vs 300 mg
  effectiveness vs 300 mg: consistently less effective than 300 mg
Pneumocystis carinii [3]; 150 mg vs 30 mg
  time to PCP occurrence, Kaplan-Meier: superior to the 30 mg arm but less so than the 300 mg arm
Pneumocystis carinii [3]; 300 mg arm
  PCP episodes vs other arms: fewest PCP episodes
Pneumocystis carinii [3]; 300 mg every 4 weeks vs 30 mg every 2 weeks
  time to PCP occurrence, Kaplan-Meier: consistently superior
Pneumocystis carinii [3]; 300 mg group
  hazard of PCP, Cox model: significantly lower hazard of PCP
Pneumocystis carinii [3]; all arms
  PCP episodes documented during study: One hundred-one
  PCP events not histologically confirmed: Twenty-five
  completed the study without reaching a study endpoint: 26%
  deaths due to PCP: Nineteen
Pneumocystis carinii [3]; all strata, eligible, PCP within 60 days
  p, log rank 30 mg vs. 300 mg: .004
Pneumocystis carinii [3]; [5]
  No PCP: 89
  PCP: 28
Pneumocystis carinii [3]; all strata, eligible, PCP within 60 days, 150 mg
  PCP: 18
Pneumocystis carinii [3]; all strata, eligible, PCP within 60 days, 300 mg
  PCP: 16
Pneumocystis carinii [3]; all strata, eligible, confirmed PCP within 60 days
  p, log rank 30 mg vs. 300 mg: .0008
Pneumocystis carinii [3]; [6]
  No PCP: 95
  PCP: 22
Pneumocystis carinii [3]; all strata, eligible, confirmed PCP within 60 days, 150 mg
  PCP: 16
Pneumocystis carinii [3]; all strata, eligible, confirmed PCP within 60 days, 300 mg
  PCP: 8
Pneumocystis carinii [3]; all strata, intention to treat
  p, log rank 30 mg vs. 300 mg: .02
Pneumocystis carinii [3]; all strata, intention to treat, all PCP, 30 mg
  PCP: 41
Pneumocystis carinii [3]; all strata, intention to treat, all PCP, 150 mg
  PCP: 32
Pneumocystis carinii [3]; all strata, intention to treat, all PCP, 300 mg
  PCP: 28
Pneumocystis carinii [3]; all strata, intention to treat, 30 mg
  No PCP: 94
Pneumocystis carinii [3]; for 150 mg
  Cox relative hazard of 30 mg, on study drugs events: 1.7
Pneumocystis carinii [3]; for 300 mg
  Cox relative hazard of 30 mg, on study drugs events: 3.9
Pneumocystis carinii [3]; human, in vivo
  all cause mortality between three treatment arms: did not significantly differ
Pneumocystis carinii [3]; initial CD4 counts greater than 200, no prior PCP
  participants who developed PCP: 5.1%
Pneumocystis carinii [3]; initial CD4 counts less than 200, no prior PCP
  participants who developed PCP: 13%
Pneumocystis carinii [3]; prior PCP strata, eligible, PCP within 60 days
  p, log rank 30 mg vs. 300 mg: .006
Pneumocystis carinii [3]; [7]
  No PCP: 42
  PCP: 25
Pneumocystis carinii [3]; [8]
  No PCP: 51
  PCP: 16
Pneumocystis carinii [3]; [9]
  No PCP: 60
  PCP: 14
Pneumocystis carinii [3]; prior PCP strata, eligible, confirmed PCP within 60 days
  p, log rank 30 mg vs. 300 mg: .002
Pneumocystis carinii [3]; [10]
  No PCP: 47
  PCP: 20
Pneumocystis carinii [3]; [11]
  No PCP: 53
  PCP: 14
Pneumocystis carinii [3]; [12]
  No PCP: 66
  PCP: 8
Pneumocystis carinii [3]; prior PCP strata, intention to treat
  p, log rank 30 mg vs. 300 mg: .02
Pneumocystis carinii [3]; prior PCP strata, intention to treat, all PCP, 30 mg
  PCP: 33
Pneumocystis carinii [3]; prior PCP strata, intention to treat, all PCP, 150 mg
  PCP: 24
Pneumocystis carinii [3]; prior PCP strata, intention to treat, all PCP, 300 mg
  PCP: 21
Pneumocystis carinii [3]; prior PCP strata, intention to treat, 30 mg
  No PCP: 46
Pneumocystis carinii [3]; prior PCP strata, intention to treat, 150 mg
  No PCP: 54
Pneumocystis carinii [3]; prior PCP strata, intention to treat, 300 mg
  No PCP: 59
Pneumocystis carinii [3]; prior PCP stratum, all arms
  PCP episodes: Seventy-eight
Pneumocystis carinii [3]; prophylaxis started within 3 months of prior episode
  median time to PCP relapse: 240 days
Pneumocystis carinii [3]; therapy started within 3 months vs later
  hazard of PCP: less than half the hazard of PCP
[4]
  airway mucosal damage at repeat bronchoscopy: has not revealed evidence of airway mucosal damage
  hypotension or dysglycemia: no episodes of hypotension or dysglycemia
  mild inhalation-associated cough, patients: Eight of thirteen
  mucosal damage at repeat bronchoscopy: evidence of mucosal damage has not been observed
  pentamidine-related reactions in some patients: cough, bronchospasm, or temperature elevation
  reversible bronchospasm, patients: five
  signs or symptoms of bronchitis or bronchospasm between inhalations: not present
aerosol
  mild cough controlled by metaproterenol, patients: 9 patients
aerosol, all smokers
  severe coughing, patients: 3 patients
In vivo
  adverse systemic reactions (renal, liver, hematologic, hypoglycemia, hypotension): No adverse systemic reactions
  air-way obstruction: Neither clinical nor spirometric evidence of air-way obstruction occurred
  clinical bronchospasm: not seen
  coughing with therapy, patients: Twelve
N = 15
  Toxicity Req Change of Therapy: 0(0) n (%)
